From PubChem BioAssay (NCI)
Values joined by “and” are separate entries in the source; they are usually repeats but may differ in a detail not shown here. Identical values can stand only once.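 Results reflect a 48-hour exposure of cells in 96-well plates to compound at five concentrations. GI50 = concentration required for 50% inhibition of growth. The concentration for full growth arrest is given as TGI.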

What was measured:
Assay in all cases: inhibition of tumour cell growth, NCI panel, 48 h
[1] = system: SK-MEL-2 melanoma
[2] = system: SK-MEL-28 melanoma
[3] = system: 786-0 renal
[4] = system: HCT-116 colon
[5] = system: HOP-92 NSCLC
[6] = system: RPMI-8226 leukemia
[7] = system: HCT-15 colon
[8] = system: SW-620 colon
[9] = system: M14 melanoma
[10] = system: SK-OV-3 ovarian

Row | Structure (SMILES) | TGI [1] | TGI [2] | TGI [3] | TGI [4] | TGI [5] | TGI [6] | TGI [7] | TGI [8] | TGI [9] | TGI [10] | GI50 [1] | GI50 [2] | GI50 [3] | GI50 [4] | GI50 [5] | GI50 [6] | GI50 [7] | GI50 [8] | GI50 [9] | GI50 [10]
1 | COC(=O)C1C(=O)NC2(C)CC1c1ccccc1O2 (configuration not stated) | > 100 µM | > 100 µM | > 100 µM | > 100 µM | > 100 µM | > 100 µM | > 100 µM | > 100 µM | > 10 µM | > 100 µM |  |  |  |  |  |  |  |  |  | 
2 | COc1ccc(-c2nn(-c3cccc(Cl)c3)cc2-c2c(C#N)c(=O)n3[nH]c(-c4ccc(C)o4)nc3c2C#N)cc1 | 18.1 µM | 21.1 µM | > 50 µM | 22.5 µM | 3.44 µM | > 50 µM | > 50 µM | > 50 µM | 22.4 µM | > 50 µM | 6.57 µM | 5.51 µM | 9.42 µM | 2.53 µM | 0.463 µM | 5.68 µM | 16.6 µM | 9.21 µM | 5.49 µM | 11.7 µM
3 | CC(C)OC(=O)c1cc(NC(=S)OC(C)C)ccc1Cl | 51.6 µM | > 57 µM | > 55.9 µM | > 54.6 µM | 46.4 µM | > 76.8 µM | 53.4 µM | > 64.6 µM | > 79.6 µM | > 62.6 µM |  |  |  |  |  |  |  |  |  | 
4 | CC1(O)CC2C(CC1SCc1ccccc1)C2(C)C (configuration not stated) | 33.3 µM and 26.1 µM | > 100 µM and 35.4 µM | 42.7 µM and 29.3 µM | 47.9 µM and 30.2 µM | 66.4 µM and 14.4 µM | 44.9 µM and 51.1 µM | 65 µM and 30.6 µM | 46.8 µM and 32.9 µM | 87.2 µM and 28.9 µM | > 100 µM and 29.2 µM |  |  |  |  |  |  |  |  |  | 37.5 µM and 15.7 µM
5 | c1ccc2[nH]c(-c3cscn3)nc2c1 | > 100 µM | > 100 µM | > 100 µM | > 100 µM | > 100 µM | > 100 µM | > 100 µM | > 100 µM | > 100 µM | > 100 µM |  |  |  |  |  | > 100 µM and 31.7 µM |  |  |  | 
6 | CNc1ccc(CSc2ccc(C)cc2)cc1 | > 100 µM | > 100 µM | > 100 µM | > 100 µM | 25.9 µM | 21.6 µM | 35.6 µM | > 100 µM | 32.6 µM | > 100 µM | 38.5 µM | 20.3 µM | 4.45 µM | 32.9 µM | 2.36 µM | 1.52 µM | 12.6 µM | 18.6 µM | 13.6 µM | > 100 µM
7 | Cc1cc(N(CCC#N)CCC#N)ccc1/C=C1N=C(/C=C\c2ccccc2)N(c2ccc(C(=O)O)cc2)C\1=O | > 100 µM | > 100 µM | > 100 µM | > 100 µM | > 100 µM | > 100 µM | > 100 µM | > 100 µM | > 100 µM | > 100 µM |  |  |  |  |  |  |  |  |  | 
8 | COc1cc2c(cc1OC)C(Sc1ccc(Cl)cc1)c1c(nc(N)c(C#N)c1N)O2 (configuration not stated) | 2.55 µM | 3.11 µM | 2.7 µM | 3.46 µM | 3.19 µM | 4.8 µM | 2.66 µM | 3.14 µM | 3.1 µM | 3.12 µM | 1.2 µM | 1.57 µM | 1.37 µM | 1.96 µM | 1.51 µM | 1.42 µM | 1.19 µM | 1.37 µM | 1.63 µM | 1.74 µM
